{
  "source": "patent US20060062758A1",
  "about": "“Tight junction modulator peptide PN159 for enhanced mucosal delivery of therapeutic compounds” (Nastech Pharmaceutical Comapny Inc., priority 2004, published 2006)",
  "key": {"[1]": {"tested_on": "EpiAirway™ Cell Membrane (mucosal epithelial cell layer)", "experiment": "Transepithelial electrical resistance (TER), EpiAirway in vitro epithelial tissue model", "format": "cell-based", "details": "for TER(x)/TER(159) +/− SEM*: mean values from multiple repeats", "text": "One “kit” consists of 24 units.\nA. Respiratory airway epithelial cells form tight junctions in vivo as well as in vitro, and thereby restrict the flow of solutes across the tissue. These junctions confer a transepithelial resistance of several hundred ohms×cm^2 in excised airway tissues. In the MatTek EpiAirway™ units, the transepithelial electrical resistance (TER) is reported by the manufacturer to be routinely around 1000 ohms×cm^2. […] The porous membrane-bottomed units without cells, conversely, provide only minimal transmembrane resistance (approximately 5-20 ohms×cm^2).\nB. Accurate determinations of TER require that the electrodes of the ohmmeter be positioned over a significant surface area above and below the membrane, and that the distance of the electrodes from the membrane be reproducibly controlled. The method for TER determination recommended by MatTek and employed for all experiments herein employs an “EVOM”™ epithelial voltohmmeter and an “ENDOHM”™ tissue resistance measurement chamber from World Precision Instruments, Inc., Sarasota, Fla.\nD. Determinations of TER are made with 1.5 mL of PBS in the chamber and 350 μL of PBS in the membrane-bottomed unit being measured. The top electrode is adjusted to a position just above the membrane of a unit containing no cells (but containing 350 μL of PBS) and then fixed to ensure reproducible positioning. The resistance of a cell-free unit is typically 5-20 ohms×cm^2 (“background resistance”).\nG. The unit is gently blotted free of excess PBS on its exterior surface only before being placed into the chamber (containing a fresh 1.5 mL aliquot of PBS). An aliquot of 350 μL PBS is added to the unit before the top electrode is placed on the chamber and the TER is read on the EVOM meter.\nI. The units are read in the following sequence: all sham-treated controls, followed by all formulation-treated samples, followed by a second TER reading of each of the sham-treated controls. All TER values are reported as a function of the surface area of the tissue.\nTER was calculated as: TER=(R1−Rb)×A Where R1 is resistance of the insert with a membrane, Rb is the resistance of the blank insert, and A is the area of the membrane (0.6 cm^2). The effect of pharmaceutical formulations comprising intranasal delivery-enhancing agents, for example, permeabilizing peptides as measured by TER across the EpiAirway™ Cell Membrane (mucosal epithelial cell layer). Permeabilizing peptides are applied to the EpiAirway™ Cell Membrane at a concentration of 1.0 mM. A decrease in TER value relative to the control value (control=approximately 1000 ohms-cm^2; normalized to 100.) indicates a decrease in cell membrane resistance and an increase in mucosal epithelial cell permeability.\n(§1) The formulation pH was fixed at 4.5."}, "[2]": {"tested_on": "EpiAirway™ Cell Membrane (mucosal epithelial cell layer)", "experiment": "Permeation kinetics across the in vitro epithelial tissue model", "details": "for Perm(x)/Perm(159) +/− SEM*: mean values from multiple repeats", "procedure": "(§2) The EpiAirway™ system was developed by MatTek Corp (Ashland, Mass.) as a model of the pseudostratified epithelium lining the respiratory tract. The epithelial cells are grown on porous membrane-bottomed cell culture inserts at an air-liquid interface, which results in differentiation of the cells to a highly polarized morphology. The apical surface is ciliated with a microvillous ultrastructure and the epithelium produces mucus (the presence of mucin has been confirmed by immunoblotting). The inserts have a diameter of 0.875 cm, providing a surface area of 0.6 cm^2. The cells are plated onto the inserts at the factory approximately three weeks before shipping. One “kit” consists of 24 units.\n(§3) A. A “kit” of 24 EpiAirway™ units can routinely be employed for evaluating five different formulations, each of which is applied to quadruplicate wells. Each well is employed for determination of permeation kinetics (4 time points), transepithelial electrical resistance (TER). An additional set of wells is employed as controls, which are sham treated during determination of permeation kinetics, but are otherwise handled identically to the test sample-containing units for determinations of transepithelial resistance and viability.\n(§4) B. In all experiments, the mucosal delivery formulation to be studied is applied to the apical surface of each unit in a volume of 100 μL, which is sufficient to cover the entire apical surface. An appropriate volume of the test formulation at the concentration applied to the apical surface (no more than 100 μL is generally needed) is set aside for subsequent determination of concentration of the active material by ELISA or other designated assay.\n(§5) D. In order to minimize potential sources of error and avoid any formation of concentration gradients, the units are transferred from one 0.9 mL-containing well to another at each time point in the study. These transfers are made at the following time points, based on a zero time at which the 100 μL volume of test material was applied to the apical surface: 15 minutes, 30 minutes, 60 minutes, and 120 minutes.\n(§6) F. At the completion of each time point, the medium is removed from the well from which each unit was transferred, and aliquotted into two tubes (one tube receives 700 μL and the other 200 μL) for determination of the concentration of permeated test material and, in the event that the test material is cytotoxic, for release of the cytosolic enzyme, lactate dehydrogenase, from the epithelium. These samples are kept in the refrigerator if the assays are to be conducted within 24 hours, or the samples are subaliquotted and kept frozen at −80° C. until thawed once for assays. Repeated freeze-thaw cycles are to be avoided.\n(§7) EIA kit (p/n S-1178(EIAH6101) was purchased from Peninsula Laboratories Inc. (Division of BACHEM, San Carlos, Calif., 800-922-1516). 17×120 mm polypropylene conical tubes (p/n 352097, Falcon, Franklin Lakes, N.J.) were used for all sample preparations. Eight standards were used for PTH quantitation. The rest of the assay procedure was the same as the kit inserts.\n(§8) The instant study was designed to evaluate the effect of PN159 itself or in combination with additional permeation enhancers on PTH permeation. The PN159 concentrations evaluated are 25, 50, and 100 μM. The additional permeation enhancers are 45 mg/ml M-β-CD, 1 mg/ml DDPC, and 1 mg/ml EDTA. Sorbitol was used as a tonicifier (146-190 mM) to adjust the osmolarity of formulations to 220 mOsm/kg. The formulation pH was fixed at 4.5. PTH was chosen as a model peptide in this example. 2 mg/ml PTH was combined with PN159 with or without additional permeation enhancers. The combination was tested using an in vitro epithelial tissue model to monitor PTH permeation, transepithelial electrical resistance (TER), and the cytotoxicity of the formulation by LDH assay.\n(§9) The effect of PN159 on permeation of MC-4RA was evaluated in this study."}, "[3]": {"tested_on": "EpiAirway™ Cell Membrane (mucosal epithelial cell layer)", "experiment": "LDH assay (cytotoxicity), in vitro epithelial tissue model", "format": "cell-based", "details": "Example 2, PTH study; PN159 25-100 μM", "procedure": "Repeated freeze-thaw cycles are to be avoided.\nThe amount of cell death was assayed by measuring the loss of lactate dehydrogenase (LDH) from the cells using a CytoTox 96 Cytoxicity Assay Kit (Promega Corp., Madison, Wis.). Fifty microliters of sample was loaded into a 96-well assay plates. Fresh, cell-free culture medium was used as a blank. 50 μl of substrate solution was added to each well and the plates incubated for 30 minutes at room temperature in the dark. Following incubation, 50 μl of stop solution was added to each well and the plates read on an optical density plate reader at 490 nm.\nas §1"}, "[4]": {"experiment": "Permeation kinetics across the in vitro epithelial tissue model", "details": "human, pH 5, Papp; for Papp at 120 min, 40 mg/mL: galantamine 40 mg/mL pH 5.0, calcitonin 1 mg/mL pH 3.5, PTH1-34 1 mg/mL pH 4.5", "procedure": "as §2, §3, §4, §5, §6, §7, §8, §9"}, "[5]": {"details": "Table 9, hydrophobic faces, relative to PN159"}, "[6]": {"details": "Table 6, D-amino acid substitutions, relative to PN159"}, "[7]": {"details": "Example 7, length changes, relative to PN159"}},
  "data": [
    {"molecule": "NH2-KALAALLKKAAKLLAALK-amide (H-KALAALLKKAAKLLAALK-NH2) [PN442]", "values": [
      {"measurement": "TER(x)/TER(159) +/− SEM*", "setting": "[1]; [5]", "result": "0.93 +/− 0.03"},
      {"measurement": "Perm(x)/Perm(159) +/− SEM*", "setting": "[2]; [5]", "result": "0.81 +/− 0.03"}
    ]},
    {"molecule": "NH2-alklaaklaklalklalk-amide (ALKLAAKLAKLALKLALK; all D-amino acids; C-terminal amide) [PN408]", "values": [
      {"measurement": "TER(x)/TER(159) +/− SEM", "setting": "[1]; [6]", "result": "1.05 +/− 0.01"},
      {"measurement": "Perm(x)/Perm(159) +/− SEM", "setting": "[2]; [6]", "result": "1.16 +/− 0.07"}
    ]},
    {"molecule": "Triton X [reference compound]", "values": [
      {"measurement": "cytotoxicity (LDH)", "setting": "[3]", "result": "significant cytotoxicity"},
      {"measurement": "TER reduction (in words)", "setting": "[1]; Example 2, PTH formulation study, applied to apical side", "result": "significant TER reduction"}
    ]},
    {"molecule": "COc1ccc2c3c1O[C@H]1C[C@@H](O)C=C[C@@]31CCN(C)C2", "note": "[Galantamine, galantamine, reference compound]", "values": [
      {"measurement": "Papp at 120 min, 40 mg/mL", "setting": "[4]; [PN159] 0 μM, PYY3-36 1 mg/mL, pH was 5.0", "result": "~2.1", "unit": "×10⁻⁶ cm/s"},
      {"measurement": "Papp at 120 min, 40 mg/mL", "setting": "[4]; [PN159] 25 μM, PYY3-36 1 mg/mL pH 7.0", "result": 5.1, "unit": "×10⁻⁶ cm/s"},
      {"measurement": "Papp at 120 min, 40 mg/mL", "setting": "[4]; [PN159] 50 μM", "result": 6.2, "unit": "×10⁻⁶ cm/s"},
      {"measurement": "Papp at 120 min, 40 mg/mL", "setting": "[4]; [PN159] 100 μM, PYY3-36 1 mg/mL pH 7.0", "result": 7.2, "unit": "×10⁻⁶ cm/s"},
      {"measurement": "Papp at 120 min, 40 mg/ml", "setting": "[4]; in the presence of 25 nM PN159 (as printed in text)", "result": 5.1, "unit": "×10⁻⁶ cm/s"},
      {"measurement": "Papp at 120 min, 40 mg/ml", "setting": "[4]; in the presence of 50 nM PN159 (as printed in text)", "result": 6.2, "unit": "×10⁻⁶ cm/s"},
      {"measurement": "Papp at 120 min, 40 mg/ml", "setting": "[4]; in the presence of 100 nM PN159 (as printed in text)", "result": 7.2, "unit": "×10⁻⁶ cm/s"},
      {"measurement": "Papp", "setting": "[2]; [PN159] 0 μM, galantamine 40 mg/mL pH 5.0, calcitonin 1 mg/mL pH 3.5, PTH1-34 1 mg/mL pH 4.5, PYY3-36 1 mg/mL, pH was 5.0", "result": 2.1, "unit": "×10⁻⁶ cm/s"},
      {"measurement": "increase in Papp", "setting": "[2]; drug in the presence of PN159 vs drug alone", "result": "2.5-3.5 fold"}
    ]},
    {"molecule": "NH2-KLALKLALKALKAALKLALKLALKAL-amide (H-KLALKLALKALKAALKLALKLALKAL-NH2) [PN422]", "values": [
      {"measurement": "TER(x)/TER(159) +/− SEM*", "setting": "[1]; [7]", "result": "0.47 +/− 0.07"},
      {"measurement": "Perm(x)/Perm(159) +/− SEM*", "setting": "[2]; [7]", "result": 0.07}
    ]},
    {"molecule": "NH2-KLAAALLKKAKKLAAALL-amide (H-KLAAALLKKAKKLAAALL-NH2) [PN441]", "values": [
      {"measurement": "TER(x)/TER(159) +/− SEM*", "setting": "[1]; [5]", "result": "0.54 +/− 0.04"},
      {"measurement": "Perm(x)/Perm(159) +/− SEM*", "setting": "[2]; [5]", "result": "0.35 +/− 0.04"}
    ]}
  ]
}
